Reference: paper PMC4991273 (2016)

Key:
[1] = test system: myc2345 (DNA, G4) TGAGGGTGGGGAGGGTGGGGAA; test: fluorescence emission titration; settings: K+ 100 mM; 10 mM lithium cacodylate, pH 7.3; 2 μM compound; per motif (2 compounds per G-quadruplex); per site
[2] = test system: ds17 (DNA, duplex) CCAGTTCGTAGTAACCC/GGGTTACTACGAACTGG; test: fluorescence emission titration; settings: K+ 100 mM; 10 mM lithium cacodylate, pH 7.3; 2 μM compound; per motif (2 compounds per 5 base pairs); per site
[3] = test system: PDGF-A (DNA, G4) GGAGGCGGGGGGGGGGGGGCGGGGGCGGGGGCGGGGGAGGGGCGCGGC; test: fluorescence emission titration; settings: K+ 100 mM (DNA annealed in 25 mM KCl); 10 mM lithium cacodylate, pH 7.3; 2 μM compound
[4] = test system: TBA (DNA, G4) GGTTGGTGTGGTTGG; test: fluorescence emission titration; settings: K+ 100 mM; 10 mM lithium cacodylate, pH 7.3; 2 μM compound; per site
[5] = test system: ss17 (DNA, single strand) CCAGTTCGTAGTAACCC; test: fluorescence emission titration; settings: K+ 100 mM; 10 mM lithium cacodylate, pH 7.3; 2 μM compound; per motif of 5 bases; per site
[6] = test system: TBA (DNA, G4) GGTTGGTGTGGTTGG; test: fluorescence enhancement and lifetime (TCSPC); settings: K+ 100 mM; 10 mM lithium cacodylate, pH 7.3; 2 μM compound
[7] = test system: ss17 (DNA, single strand) CCAGTTCGTAGTAACCC; test: fluorescence enhancement and lifetime (TCSPC); settings: K+ 100 mM; 10 mM lithium cacodylate, pH 7.3; 2 μM compound
[8] = test system: ds17 (DNA, duplex) CCAGTTCGTAGTAACCC/GGGTTACTACGAACTGG; test: fluorescence enhancement and lifetime (TCSPC); settings: K+ 100 mM; 10 mM lithium cacodylate, pH 7.3; 2 μM compound
[9] = test system: myc2345 (DNA, G4) TGAGGGTGGGGAGGGTGGGGAA; test: fluorescence enhancement and lifetime (TCSPC); settings: K+ 100 mM; 10 mM lithium cacodylate, pH 7.3; 2 μM compound
[10] = test system: PDGF-A (DNA, G4) GGAGGCGGGGGGGGGGGGGCGGGGGCGGGGGCGGGGGAGGGGCGCGGC; test: fluorescence enhancement and lifetime (TCSPC); settings: K+ 100 mM (DNA annealed in 25 mM KCl); 10 mM lithium cacodylate, pH 7.3; 2 μM compound

Row | K a [1] | K a [2] | K a [3] | K a [4] | K a [5] | binding [6] | binding [7] | binding [8] | binding [9] | binding [10] | Compound
1 | 8.4 ± 2.9 × 10^5 M^-1 | 2.1 ± 0.3 × 10^6 M^-1 | 1.6 ± 1.5 × 10^6 M^-1 | 1.2 ± 0.4 × 10^6 M^-1 | 1.0 ± 0.2 × 10^6 M^-1 |  |  |  |  |  | CCCn1c2cccc3oc4cccc5c4c(c4c1cccc4[n+]5CCC)-c32
2 |  |  |  |  |  | yes | yes | yes | yes | yes | c1cc2oc3cccc4c3c3c5c(cccc5[n+]4CCN4CCOCC4)n(CCN4CCOCC4)c(c1)c2-3
